Converted amounts (≈) assume the structure as drawn. Where two headings read alike, the source gives them in different places.
Columns and labels:
[1] = system: Mycobacterium smegmatis ATCC 606; experiment: agar-dilution streak-plate antimicrobial assay; type: cell-based; settings: Mycolicibacterium smegmatis, ATCC606, read-out: Minimal inhibitory conc. (6)
Protocol: The novel compounds of the present invention are also useful as antimicrobial agents. […] In this assay, the compounds to be tested are made up to contain 2.5 mg. of test compound per milliliter of solution. Observing sterile techniques, two-fold serial dilution are made of each test solution. One milliliter of each of the original solutions and of each of the serial dilutions is then added to 9 ml. of warm sterile nutrient agar capable of supporting growth of the bacterial test cultures. A second set of agar dilutions is prepared identical to the first except that the nutrient agar is designed to support the growth of the fungal test cultures. […] The test bacteria and yeast-like fungi are prepared for use by growing in broth overnight. The spores of the filamentous fungi are harvested from mature agar slant cultures and are suspended in sterile physiological saline solution. A loopful of each of the resulting live suspensions is then, still employing sterile techniques, streaked upon the surfaces of each of the agar plates and the resulting streaked plates are then incubated. After an appropriate period of time, each of the streaks on each of the plates is inspected visually and the extent, if any, of bacterial or fungal growth is noted. The minimal inhibitory concentration (expressed in micrograms per milliliter) is defined as the concentration of test compound causing complete inhibition of growth of any particular organism. In a representative operation, and merely by way of illustration, the minimal inhibitory concentration of typical compounds of the present invention against a variety of test organisms as determined in the above-described assay are set forth in Tables II and III below: […]

[2] = system: diastolic blood pressure; experiment: Prostaglandin-like hypotensive activity in anesthetized rats (minimal dose for about 10 mm. decrease in diastolic blood pressure); type: in vivo, Male Wistar strain rats; settings: Rattus norvegicus; intravenous; decrease of about 10 mm. in diastolic blood pressure
Protocol: This procedure is a modification of the technique described by Pike et al., Prostaglandins, Nobel Symposium 2, Stockholm, June, 1966; p, 165.
Male Wistar strain rats (Royal Hart Farms) averaging approximately 250 grams in weight were fastened to rat boards in a supine position by means of canvas vests and limb ties. The femoral area was infiltrated subcutaneously with lidocaine and the iliac artery and vein exposed and cannulated. Arterial blood pressure (systolic/diastolic) was recorded using a Statham P23 Db pressure transducer-Offner dynograph system. To obtain a stable blood pressure, the animals were anesthetized before use with pentobarbital, 30 mg./kg. of body weight intravenously, and also were given hexamethonium bitartrate, 2 mg./kg. of body weight intravenously. The test compounds were prepared by ultrasonic dispersion in a saline-Tween 80 ® vehicle. A constant intravenous dose volume of 0.5 ml. was administered and test doses ranged from 0.1 to 10.0 mg./kg. of body weight. Increasing or decreasing doses were selected depending on the dose response obtained. In Table I below are set forth the minimal doses required to produce a decrease of about 10 mm. in diastolic blood pressure for typical compounds of the present invention.

[3] = system: dl-PGE1-induced contraction of gerbil colon; experiment: Inhibition of dl-PGE1-Induced Contraction of Gerbil Colon (prostaglandin antagonist action); type: cell-based, gerbils (Meriones unguiculatus); settings: Meriones unguiculatus, 1 min
Protocol: The compounds of this invention are also useful as antagonists of prostaglandin action and accordingly they are potentially useful as anti-inflammatory agents, and as agents for the treatment of periodontal diseases and diarrhea. Testing for prostaglandin antagonist action is carried out in the following manner. Sections of ascending colon, approximately 20 mm. long, from mature male gerbils (Meriones unguiculatus) weighing 70-80 g. were mounted in De Jalon's solution (154 mM NaCl; 5.95 mM NAHCO3; […], 5.64 mM KC and .27 mM CaCl2 in 20 ml. tissue baths) (L and K Glass Co., Lynnhurst, N.J.). The medium was continually gassed with a mixture of 95% 02 -5% CO2 and maintained at 37° C. The tissues were suspended via silk suture threads between a glass hook at the base and a model FT .03C force displacement transducer (Grass Instruments, Quincy, Massachusetts). Contractions were recorded on a Poly-Viso ® polygraph (Sanborn Co., Cambridge, Massachusetts). After mounting, tissues were allowed to stabilize 15-20 minutes during which time adjustments were made to establish and maintain a 0.5 g. resting tension on the muscle. Thereafter, test cycles of 3-5 minutes were begun and consisted of a 1 minute exposure to the potential antagonist, if called for, followed by a 1 minute exposure to the prostaglandin agonist, a 15-30 sec. washout and a recovery period of 2-2.5 minutes. […] During the washout period, the tissue was rinsed with a measured amount equalling 8 volumes of medium. Muscle relaxation was virtually complete by the end of the washout period. During preliminary tests it was noted that a final concentration of 200 ng./ml. of a racemic mixture of synthetic prostaglandin-E1 (dl-PGE1) produced maximal muscle contraction. Following stabilization, muscles were exposed 2 to 3 times to this concentration of dl-PGE1 until a consistent response was recorded. Once maximal responses were established, test cycles with potential antagonists were commenced and were followed alternately with prostaglandin-only test cycle. […] The contraction of the muscle induced by 200 ng./ml. dl-PGE1 following exposure to a given concentration of the potential antagonist was always compared to the response of the tissue to that level of dl PGE1 in the immediately preceding cycle. Using a series of potential antagonist concentrations, an approximate ID50 (concentration at which 50% inhibition was observed) was established. The compounds were also tested against a sub-maximal prostaglandin challenge (20 ng./ml. dl-PGE1) in which case activity is reported in terms of a 50% inhibition of maximum response.

[4] = system: bronchospasms elicited by acetylcholine; experiment: Bronchodilator Activity (Konzett Assay) against acetylcholine; type: in vivo, guinea pigs; settings: Cavia porcellus; three logarithmic cumulative intravenous doses
Protocol: (§1) Bronchodilator activity was determined in guinea pigs against bronchospasms elicited by intravenous injections of 5-hydroxytryptamine, histamine or acetylcholine by the Konzett procedure. [See J. Lulling, P. Lievens, F. El Sayed and J. Prignot, Arzeneimittel-Forschung, 18, 995 (1968)]. In Table IIIC which follows bronchodilator activity for representative compounds of this invention against one or more of the three spasmogenic agents is expressed as an ED50 determined from the results obtained with three logarithmic cumulative intravenous doses.

[5] = system: bronchospasms elicited by 5-hydroxytryptamine; experiment: Bronchodilator Activity (Konzett Assay) against 5-hydroxytryptamine; type: in vivo, guinea pigs; settings: Cavia porcellus; three logarithmic cumulative intravenous doses
Protocol: as §1

[6] = system: bronchospasms elicited by histamine; experiment: Bronchodilator Activity (Konzett Assay) against histamine; type: in vivo, guinea pigs; settings: Cavia porcellus; three logarithmic cumulative intravenous doses
Protocol: as §1

[7] = system: gastric acid secretion; experiment: Inhibition of Gastric Acid Secretion (Pylorous-Ligated Rat), Shay rat procedure; type: in vivo, rats (male, CFE strain); settings: 100 mg./kg. intraduodenal, read-out: % Inhibition of Control Gastric Acid Secretion
Text: The novel compounds of the present invention are also effective inhibitors of gastric acid secretion and of ulcer development in experimental animals, and thus are potentially valuable as agents for the control of gastric acid secretion and of gastric erosion and as anti-ulcer agents. Gastric acid secretion inhibitory action is usually measured by the Shay rat procedure ^(1,2) with some modifications as follows. 6 1. Shay et al., Gastroenterology, 5, 43 (1945). 6 2. Shay et al., Gastroenterology, 26, 906 (1954).
The rats (male, CFE strain) were starved for 48 hours (water was given ad libitum) to permit evacuation of stomach contents. On the morning of the experiment, under ether anesthesia, the abdominal region was shaved and a midline incision (1-1 1/2 inch) was made with a scalpel. With the help of a closed curved hemostat the duodenum was picked up. Upon getting the duodenum into view fingers were used to pull the stomach through the opening, the stomach was then gently manipulated with fingers to rid stomach of air and residual matter which were pushed through the pylorus. Two 5-inch sutures were drawn under the pyloric-duodenal puncture. A ligature, at the juncture, was formed with one of the threads. The second ligature was also formed but not tightened.
The test compound or the vehicle, usually 1 ml./100 g. body weight, were injected into the duodenum as close as possible to the first ligature. After injection the second ligature was tightened below the injection site to minimize leakage. The stomach was placed back through the opening into the abdominal cavity, the area of incision was washed with saline and the incision was closed with autoclips. (Ocasionally instead of an intraduodenal injection, animals were dosed by the oral or subcutaneous route. In the latter case, dosing was done thirty to sixty minutes before the operation).
The abdominal cavity was exposed by cutting with scissors and the esophagus close to the stomach was clamped off with a hemostat, the stomach was removed by cutting above the hemostat (the esophagus was cut) and between the two sutures. Extraneous tissue was removed, the stomach washed with saline and blotted on gauze. A slit was carefully made in the stomach which was held over a funnel and the contents were collected in a centrifuge tube. The stomach was further cut along the outside edge and turned inside out. Two ml. of water were used to wash the stomach contents into the respective centrifuge tube. The combined stomach contents and wash were then centrifuged out for 10 minutes in the International Size 2 Centrifuge (setting at 30). The supernatant was collected, volume measured and recorded, 2 drops of phenolphthalein indicator (1% in 95% ethanol) were added and the solution was titrated with 0.02N NaOH (or with 0.04N NaOH when large volumes of stomach contents were encountered) to pH 8.4 (because of usual coloring of the stomach contents, phenolphthalein was only used to permit visual indication that the end point was near) and the amount of acid present was calculated.
Compounds inducing inhibition of gastric acid secretion of 20% or more were considered active. In a representative operation, and merely by way of illustration, the results obtained with this assay with typical compounds of the present invention are given in Table IIIA.

[8] = 200 ng./ml. dl-PGE1, read-out: ID50 vs. 200 ng. of PGE1/ml.
[9] = sub-maximal challenge, 20 ng./ml. dl-PGE1, 50% inhibition of maximum response, read-out: ID50 vs. 20 ng. of PGE1/ml.

| Compound | MIC [1] [µg/mL] | minimal effective dose [2] [mg/kg] | IC50 [3, 8] [µg/mL] | ED50 [4] [mg/kg] | ED50 [5] [mg/kg] | ED50 [6] [mg/kg] | IC50 [3, 9] [µg/mL] | inhibition in vivo at 100 mg/kg [7] [%] |
| --- | --- | --- | --- | --- | --- | --- | --- | --- |
| CCCCCC/C=C/[C@@H]1CCC(=O)[C@H]1CCCCCCC(=O)Oc1cccnc1 (relative stereo) [3-pyridyl 9-oxo-13-trans-prostenoate, 3'-pyridyl 9-oxo-13-trans-prostenoate] | 50 (≈ 125 µM) | 0.4 to 4 | 12 (≈ 30 µM) |  |  |  |  |  |
| CCCCCC/C=C/[C@@H]1CCC(=NNc2ccc(C(=O)O)cc2)[C@H]1CCCCCCC(=O)O (relative stereo) [9-Oxo-13-trans-prostenoic acid p-carboxyphenylhydrazone] |  |  |  | 5.55 | 3.2 | 0.931 |  |  |
| C=C1CC[C@@H](/C=C/CCCCCC)[C@@H]1CCCCCCC(=O)O (relative stereo) [9-methylene-13-trans-prostenoic acid, 9-Methylene-13-trans-prostenoic acid] |  |  |  | > 10 | 14.1 | 1.45 |  |  |
| CCCCCC/C=C/[C@@H]1CCC(=O)[C@H]1CCCCSCC(=O)O (relative stereo) [9-oxo-3-thia-13-trans-prostenoic acid] |  |  | 20 (≈ 58.7 µM) | 2.43 | 1.56 | 1.24 |  |  |
| CCCCCC/C=C/[C@@H]1CCC(=O)[C@H]1C/C=C\CCCC(=O)O (relative stereo) [9-oxo-5-cis,13-trans-prostadienoic acid, 9-oxo-5-cis-13-trans-prostadienoic acid] |  |  | 9 (≈ 28.1 µM) | 4.36 | 1.5 | 1.42 | 0.9 (≈ 2.81 µM) |  |
| CCS(=O)(=O)CCC/C=C/[C@H]1CCC(=O)[C@@H]1CCCCCCC(=O)O (relative stereo) [9-oxo-18-dioxythia-13-trans-prostenoic acid] |  |  |  | > 10 | > 10 | 9.87 |  |  |
| CCCCCC/C=C/[C@@H]1CC[C@@H](O)[C@H]1CCCCCCC(=O)O (relative stereo) [9α-hydroxy-13-trans-prostenoic acid] |  |  |  | 2.53 | 0.559 | 0.268 |  |  |
| CCOC(=O)CCCCCC[C@H]1C(=O)CC[C@@H]1/C=C/CCCSCC (relative stereo) [ethyl 9-oxo-18-thia-13-trans-prostenoate] | 250 (≈ 678 µM) | 2 |  |  |  |  |  |  |
| CCCCC/C=C/[C@H]1CCC(=O)[C@@H]1CCCCCCC(=O)OCC (relative stereo) [ethyl 9-oxo-20-nor-13-trans-prostenoate] | 62 (≈ 184 µM) | 0.6 |  |  |  |  |  |  |
| CCOC(=O)CCCCCC[C@H]1C(=O)CC[C@@H]1/C=C/CCC(C)C (relative stereo) [ethyl 17-methyl-9-oxo-19,10-dinor-13-trans-rpostenoate] | 62 (≈ 184 µM) | 10 |  |  |  |  |  | 21 |
| CCOC(=O)CCCCCC[C@H]1C(=O)CC[C@@H]1/C=C/CCCC(C(=O)OCC)C(=O)OCC (relative stereo) [ethyl 20,20-dicarbethoxy-9-oxo-18,19-dinor-13-trans-prostenoate] | 250 (≈ 536 µM) | 8 |  |  |  |  |  | 38 |
| CCCCCCC=CC1CCC(O)(c2ccccc2)C1CCCCCCC(=O)O (stereo not drawn) [9-hydroxy-9-phenyl-13-trans-prostenoic acid] |  |  |  | > 10 | 2.44 | 5.27 |  |  |
| CCCCCC/C=C/[C@H]1CCC(=O)[C@@H]1CCCCCC(CC)C(=O)O (stereo partly drawn) [9-oxo-2-ethyl-13-trans-prostenoic acid, 2-ethyl-9-oxo-13-trans-prostenoic acid] |  |  | 15 (≈ 42.8 µM) | > 10 | 2.91 | 7.75 | 4 to 5 (≈ 11.4 to 14.3 µM) |  |
| CCCCCC/C=C/[C@H]1CC(C)C(=O)[C@@H]1CCCCCCC(=O)O (stereo partly drawn) [9-oxo-10-methyl-13-trans-prostenoic acid] |  |  |  | 73.2 | 1.84 | 0.303 |  |  |
| CC(C)C/C=C/[C@H]1CCC(O)[C@@H]1CCCCCCC(=O)O (stereo partly drawn) [9α/β-hydroxy-16-methyl-18,19,20-trinor-13-trans-prostenoic acid] |  |  |  | > 10 | > 10 | 3.47 |  |  |
